Square brackets hold non-standard residues; d marks the D form. Peptide text beside a SMILES is read from it. * marks the point of attachment. PhAc = O=C(Cc1ccccc1)*
Tests used:
[1] = system: delayed-type hypersensitivity murine model; assay: Adoptive transfer delayed type hypersensitivity in mice (oxazolone); type: in vivo, mouse; details: 6 mg/kg/day s.c. by implanted pump for 24 hours; versus saline
Protocol: An adoptive transfer delayed-type hypersensitivity murine model has been developed using splenic T cells primed to oxazolone. This model is described in Elices et al., Clin. Exp. Rheum., 11 (Suppl. 8):577-580 (1993), whose procedures were followed here.
Thus, BALB/c mice were shaved on the belly and painted (50 μl on the belly and 5 μl on each paw) with three percent oxazolone in acetone/olive oil (4:1) at days zero and 1. At day 5, the mice were sacrificed, their spleens removed, and splenic T cells were obtained via nylon wool columns.
Normal saline or saline containing 25×10^6 /animal of the oxazolone-immune T cells were separately injected into naive mice. The mice were then challenged by painting 10 μl of 2 percent oxazolone onto one ear each. All procedures were carried out under sterile conditions and in endotoxin-free buffers.
Prior to challenge or saline injection, the mice were implanted with pumps that subcutaneously administered normal saline, normal saline containing the compound, Compound ID No. 896.52, N-phenylacetyl-Leu-Asp-Phe-D-Pro-NH2, or normal saline containing a compound with a scrambled sequence continually at 6 mg/kg/day for a 24-hour time period. The swelling diameter at the site of challenge or saline injection was measured with a microcaliper 24 hours thereafter.
An expanded study was carried out as described above except that a scrambled compound control was not used as a control for further inhibitor compounds of Table 1 with larger groups of mice. Statistical analyses were carried out versus injection of vehicle alone.

[2] = system: rabbit cardiac allograft coronary arteries; assay: Rabbit cardiac allograft model; type: in vivo; on Expression on Coronary Arteries: ICAM-1: key: -: negative; ±: minimal; +: little; ++: moderately abundant; +++: very abundant; on Expression on Coronary Arteries: Macrophages: key: -: negative; ±: minimal; +: little; ++: moderately abundant; +++: very abundant; on Expression on Coronary Arteries: T cells: key: -: negative; ±: minimal; +: little; ++: moderately abundant; +++: very abundant; on Expression on Coronary Arteries: Total Fibronectin: key: -: negative; ±: minimal; +: little; ++: moderately abundant; +++: very abundant
Excerpt: New Zealand white rabbit SPF hearts were allografted into the necks of similar rabbits to assay a graft-vs-host immunorejection model and the affect of a contemplated compound on that immunoinflammatory response.
Experimental animal model New Zealand white female rabbits (Charles River Lab., Saint Laurent, Quebec), between 3.5 and 4 kg underwent heterotopic cardiac transplant following an experimental protocol previously described [Alonso et al., Am. J. Pathol., 87:415-442 (1977); Clausell et al., Circulation, 89:2768-2779 (1994)]. The animals were unselected to favor an HLA-mismatch, the host rabbits were Pasteurella-free and the donors, outbred animals. Both host and donor rabbits were fed Purina 5321-0.5 percent cholesterol diet (Research Diets Inc., New Brunswick, N.J.), a strategy that has proven useful in accelerating the process of allograft arteriopathy [Alonso et al., Am. J. Pathol., 87:415-442 (1977)]. The diet was commenced four days prior to the transplant and continued in the recipient of the transplant until the completion of the experimental period.
The technique of heterotopic cardiac transplantation has been previously described [Clausell et al., Circulation, 89:2768-2779 (1994)]. Briefly, a vertical incision was performed in the anterior aspect of the neck of the recipient rabbit and the left common carotid artery and the ipsilateral external jugular vein were isolated. The cardiac allograft was placed in the neck by anastomosing the aorta end-to-side to the recipient's carotid artery and the pulmonary end-to-side to the recipient's external jugular vein, following a total period of ischemia for the donor hearts of approximately 30 minutes. Postoperative care was in compliance with the Principles of Laboratory Animal Care formulated by the Canadian National Society for Medical Research.
Beginning the day of the transplant, the animals were randomized and treated with either scrambled compound (control group) at 1 mg/kg s.c. or the inhibitor compound at 1 mg/kg s.c. The doses of the compounds were empirically extrapolated to the in vivo model based on preliminary in vitro studies, of Table 1. No other immunosuppression therapy was administered. The grafts were monitored daily by palpation and maintained for 7 to 8 days, a previously described endpoint that was associated with myocardial rejection (impaired cardiac contractility) and development of the allograft arteriopathy in this model [Clausell et al., Circulation, 89:2768-2779 (1994)]. A total of fourteen animals were studied in the control (n=7) and treated (n=7) groups.
Preparation of the hearts The animals were sacrificed using a lethal dose of euthanol (480 mg i.v.) (MTC Pharmaceutical, Cambridge, Oreg.), host and donor hearts were removed, and the coronary arteries were perfused with saline through the aorta, followed by light fixation by perfusion with 2 percent paraformaldehyde (Sigma, St, Louis, Mo.). […] Different sections of the hearts were either saved in 10 percent formalin (BDH Inc., Toronto, ON) for light microscopy studies or immediately frozen in O.T.C. Compound Tissue Tek (Miles Inc., Elkart, In.) for specific immunohistochemistry studies.
Three different paraffin-embedded tissue sections from host and donor hearts from both control and treated rabbits were stained by the Movat pentachrome method for light microscopy. Morphometric analysis was performed using a Zeiss microscope attached to a computer-generated video analysis system (Perceptics Inc., NuVision software), as described in Clausell et al., Circulation, 89:2768-2779 (1994). The number of vessels with intimal lesions were counted in all three heart sections from each animal studied and are expressed as a percentage of the total vessel number.
In the host hearts, 999 vessels in the control group and 1054 vessels in the treated group were analyzed. In the donor hearts, 827 vessels in the control group and 617 vessels in the treated group were analyzed. […]

SMILES: CC(C)C[C@H](NC(=O)[C@H](CC(=O)O)NC(=O)Cc1ccccc1)C(=O)N[C@@H](Cc1ccccc1)C(=O)N1CCC[C@@H]1C(N)=O [Compound ID No. 1066.02, N-phenylacetyl-Asp-Leu-Phe-D-Pro-NH2, reference compound] (PhAc-DLF[dP]-NH2)
- swelling at challenge site (initial study, FIG. 5) [1]: no reduction of inflammation
- Expression on Coronary Arteries: ICAM-1 ([2]; 1 mg/kg s.c., 7 to 8 days): +
- Expression on Coronary Arteries: Macrophages ([2]; 1 mg/kg s.c., 7 to 8 days): +
- Expression on Coronary Arteries: T cells ([2]; 1 mg/kg s.c., 7 to 8 days): ++
- Expression on Coronary Arteries: Total Fibronectin ([2]; 1 mg/kg s.c., 7 to 8 days): ++
- Expression on Coronary Arteries: VCAM-1 ([2]; 1 mg/kg s.c., 7 to 8 days): +
- Expression on Coronary Arteries: MHC Class II ([2]; 1 mg/kg s.c., 7 to 8 days, immunoperoxidase score): ++
- Vessel Intimal Thickening: Percent of Vessels ([2]; donor hearts, 1 mg/kg s.c.): 88%
- Vessel Intimal Thickening: Severity (Percent of Vessel area) ([2]; donor hearts, 1 mg/kg s.c.): 36%
- Baseline (rabbit own host heart) of incidence ([2]; host heart): 1%
- Baseline (rabbit own host heart) of severity ([2]; host heart): 12%

— patent US5770573A, “CS-1 peptidomimetics, compositions and methods of using the same” (Cytel Corporation, priority 1995, dated 1998)
